In ChEMBL document CHEMBL1152973, “Structure-activity relationship of etomidate derivatives at the GABA(A) receptor: Comparison with binding to 11beta-hydroxylase” (Bioorg Med Chem Lett, 2009) one finds Activity, IC50 and Ratio IC50 data, which are given here for 23 compounds.

The term IC50 denotes the concentration at which inhibition is half-maximal.

Active and inactive are the calls of the source. The calls are words filed in the database; no cut-off is given here. A value given as a limit tells only on which side of the number the result lay.

The species entered for assay [1] is Rattus norvegicus. The experiment in a line: Displacement of [3H]ethynylpropylbicycloorthobenzoate from GABA receptor from rat cortical membrane at 100 uM by scintillation counting in presence of 1 uM GABA.
The species entered for assay [2] is Rattus norvegicus. The assay can be described thus: Displacement of [3H]ethynylpropylbicycloorthobenzoate from GABA receptor from rat cortical membrane at 100 uM by scintillation counting in absence of GABA.
Assay [3] can be described thus: Displacement of [3H]ethynylpropylbicycloorthobenzoate from GABA receptor from rat cortical membrane by scintillation counting in absence of GABA.
The species named for assay [4] is Rattus norvegicus. The assay can be described thus: Ratio of IC50 for rat cortical membrane GABA receptor in absence of GABA to IC50 for rat cortical membrane GABA receptor in presence of GABA.
Assay [5] can be described thus: Displacement of [3H]ethynylpropylbicycloorthobenzoate from GABAA receptor from rat cortical membrane by scintillation counting in presence of 1 uM GABA. On the technique in general: Displacement assays read how much labelled ligand stays bound in the presence of the test substance.

With `C[C@H](c1ccccc1)n1cncc1C(N)=O`, the result in assay [1] and in assay [2] was inactive.

Regarding `CCOC(=O)c1cncn1[C@H](C)c1ccccc1` [ETOMIDATE], the IC50 in assay [3] came to 38 µM; in assay [5], 2.05 µM. For the same compound, the Ratio IC50 in assay [4] was determined as 19.3.

Turning to `CC[C@H](c1ccccc1)n1cncc1C(=O)OC`, the IC50 in assay [3] was 111 µM; in assay [5], 7.15 µM. Further, the Ratio IC50 in assay [4] came out at 15.8.

As for `CC(=O)[C@H]1CC[C@H]2[C@@H]3CC[C@H]4C[C@H](O)CC[C@]4(C)[C@H]3C(=O)C[C@]12C` [ALFAXALONE], the IC50 in assay [3] amounted to 86 µM; in assay [5], 0.9 µM. In assay [4], the Ratio IC50 came to 102.

In the case of `COC(=O)c1cncn1[C@H](C)c1ccc(I)cc1` [IODOMETOMIDATE I-123, R-], the IC50 was > 300 µM in assay [3] and 37 µM in assay [5].

In the case of `CC(=O)[C@H]1CC[C@H]2[C@@H]3CC[C@H]4C[C@H](O)CC[C@]4(C)[C@H]3CC[C@]12C` [BREXANOLONE], the IC50 in assay [3] was determined as 6.2 µM; in assay [5], 0.14 µM. The Ratio IC50 in assay [4] came to 50.

As to `CC(=O)c1cncn1[C@H](C)c1ccccc1`, the IC50 in assay [3] is > 300 µM; in assay [5], 155 µM.

With `COC(=O)c1cncn1[C@@H](C)c1ccccc1`, the IC50 in assay [3] was > 300 µM; in assay [5], 202 µM.

As to `COC(=O)c1cncn1[C@@H]1CCc2ccccc21`, the IC50 is > 300 µM in assay [3] and 122 µM in assay [5].

`CCOC(=O)c1cncn1[C@H](C)c1ccc(I)cc1`: the IC50 in assay [3] was > 300 µM; in assay [5], 33 µM.

Regarding `COC(=O)c1cncn1[C@H](C)c1ccc(Br)cc1`, the half-inhibitory concentration (IC50) in assay [3] was determined as 109 µM; in assay [5], 7.62 µM. For the same compound, the Ratio IC50 in assay [4] turned out to be 15.6.

As to `COC(=O)c1cncn1[C@H](C)c1ccc(C)cc1`, the IC50 is > 300 µM in assay [3] and 15.5 µM in assay [5].

In the case of `COC(=O)c1cncn1[C@H](C)c1ccccc1`, the IC50 in assay [3] is 163 µM; in assay [5], 8.97 µM. Further, the Ratio IC50 in assay [4] turned out to be 19.6.

Turning to `CC(C)(c1cccnc1)C(O)c1cccnc1` (stereo not given), the result in assay [1] and in assay [2] was inactive.

On to `COC(=O)c1cncn1[C@H](C)c1cccc(I)c1`, for which the IC50 in assay [3] is > 300 µM; in assay [5], 53 µM.

In the case of `C[C@H](c1ccccc1)n1cncc1C(=O)OCCF`, the figures for the IC50 in assay [3] and in assay [5] were 80 µM and 4.78 µM, respectively. In addition, the Ratio IC50 in assay [4] came out at 16.6.

Regarding `COC(=O)c1cncn1[C@H](C)c1ccc(CO)cc1`, the results for the IC50 in assay [3] and in assay [5] were > 300 µM and 169 µM, respectively.

Take `CCCOC(=O)c1cncn1[C@H](C)c1ccccc1`: the IC50 in assay [3] is 15.4 µM; in assay [5] it was 1.29 µM. In addition, the Ratio IC50 in assay [4] stood at 14.1.

For the compound `C[C@H](c1ccccc1)n1cncc1C(=O)O`, the outcome in assay [1] and in assay [2] was inactive.

`CC(C)OC(=O)c1cncn1[C@H](C)c1ccccc1`: the IC50 in assay [3] was 20.7 µM; in assay [5], 1.47 µM. In addition, the Ratio IC50 in assay [4] stood at 14.6.

For `COC(=O)c1cncn1[C@H](C)c1cccnc1`, the result in assay [1] and in assay [2] was inactive.

`COC(=O)c1cncn1Cc1ccccc1`: the values for the IC50 in assay [3] and in assay [5] were > 300 µM and 157 µM, respectively.

On to `CC(C)(C(=O)c1cccnc1)c1cccnc1`, for which the result in assay [1] and in assay [2] was inactive.
